Data: patent publication US20060276464A1, “Diarylsulfone sulfonamides and use thereof” (Wyeth, priority 2005, published 2006)
Where two headings read alike, the source gives them in different places.

Target: T1, SFRP-1 (Homo sapiens, UniProt Q8N474)
T1 sequence (Q8N474 32-314): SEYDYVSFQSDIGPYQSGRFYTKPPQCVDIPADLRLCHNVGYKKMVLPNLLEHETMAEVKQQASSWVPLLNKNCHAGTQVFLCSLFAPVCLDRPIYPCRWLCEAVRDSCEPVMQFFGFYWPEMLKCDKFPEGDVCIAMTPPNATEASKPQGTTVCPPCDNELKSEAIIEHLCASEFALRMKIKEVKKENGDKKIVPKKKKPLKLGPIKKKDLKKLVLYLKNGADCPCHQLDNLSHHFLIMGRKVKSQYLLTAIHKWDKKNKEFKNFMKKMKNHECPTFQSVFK
Test: Cell-based assay for in vitro measurement of SFRP-1/SARP2 antagonist activity (U2OS cells co-transfected with 16x TCF-tk-Luciferase reporter, Wnt and hSFRP-1);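 further: U2OS cells co-transfected with a TCF-tk luciferase reporter, a Wnt vector, hSFRP-1 or empty vector and CMV-βgal, luciferase luminescence read in cell lysates alongside βgal activity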
Settings: U2OS

[1] = read-out: Fold Induction with SFRP-1, Conc 15 μM, single dose, luciferase reporter, fold induction over SFRP-1 control, cells with SFRP-1
[2] = read-out: Fold Induction without SFRP-1, Conc 15 μM, single dose, luciferase reporter, cells without SFRP-1 (specificity control)
[3] = read-out: Fold Induction with SFRP-1, Conc 15 μM, with SFRP-1, fold induction over SFRP-1 control, single dose
[4] = read-out: Fold Induction without SFRP-1, Conc 15 μM, without SFRP-1, single dose
[5] = read-out: Fold Induction with SFRP-1, Conc 30 μM, with SFRP-1, fold induction over SFRP-1 control, single dose
[6] = read-out: Fold Induction without SFRP-1, Conc 30 μM, without SFRP-1, single dose

Row | fold induction at 15 µM [3] | fold induction at 15 µM [4] | Structure (SMILES) | further results
1 | 2.3 | 0.9 | O=S(=O)(NC1CCOCC1)c1cc(S(=O)(=O)c2ccccc2)ccc1Cl [Example 361, 2-chloro-5-(phenylsulfonyl)-N-(tetrahydro-2H-pyran-4-yl)benzenesulfonamide] | –
2 | 3.6 | 1.1 | COCC(=O)N1CCC(NS(=O)(=O)c2cc(S(=O)(=O)c3ccccc3)ccc2C)CC1 [Example 469, N-[1-(methoxyacetyl)piperidin-4-yl]-2-methyl-5-(phenylsulfonyl)benzenesulfonamide] | –
3 | 1.9 | 1.5 | Cc1ccc(S(=O)(=O)c2ccccc2)cc1S(=O)(=O)N[C@H]1CCCC[C@@H]1O (relative stereo) [Example 412, N-[(1S*,2S*)-2-hydroxycyclohexyl]-2-methyl-5-(phenylsulfonyl)benzenesulfonamide] | –
4 | 1.2 | 1 | COc1ccc(S(=O)(=O)c2ccccc2)cc1S(=O)(=O)NCCCN(C)C [Example 239, N-[3-(dimethylamino)propyl]-2-methoxy-5-(phenylsulfonyl)benzenesulfonamide] | –
5 | 2.4 | 0.9 | Cc1ccc(S(=O)(=O)c2ccccc2)cc1S(=O)(=O)NCC1CCOCC1 [Example 382, 2-methyl-5-(phenylsulfonyl)-N-(tetrahydro-2H-pyran-4-ylmethyl)benzenesulfonamide] | –

The remaining lines, values behind:

Row | Structure (SMILES) | fold induction at 15 µM [3] | fold induction at 15 µM [4] | further results
6 | CC(C)c1ccc(S(=O)(=O)c2ccc3c(c2)C(C)(C)OC(=O)N3)cc1S(=O)(=O)NCCc1ccccn1 [Example 515, 5-[(4,4-dimethyl-2-oxo-1,4-dihydro-2H-3,1-benzoxazin-6-yl)sulfonyl]-2-isopropyl-N-(2-pyridin-2-ylethyl)benzenesulfonamide] | – | – | fold induction at 15 µM [1]: 1.8; fold induction at 15 µM [2]: 1
7 | Cc1ccc(S(=O)(=O)c2ccc(C(C)(O)C3CCCCC3)cc2)cc1S(=O)(=O)NCCc1ccccn1 (centres unmarked) [Example 406, 5-{[4-(1-cyclohexyl-1-hydroxyethyl)phenyl]sulfonyl}-2-methyl-N-(2-pyridin-2-ylethyl)benzenesulfonamid] | – | – | fold induction at 60 µM (read-out: Fold Induction with SFRP-1, Conc 60 μM, with SFRP-1, fold induction over SFRP-1 control, single dose): 1.2; fold induction at 60 µM (read-out: Fold Induction without SFRP-1, Conc 60 μM, without SFRP-1, single dose): 0.9
8 | Cc1ccc(S(=O)(=O)c2ccc(F)cc2)cc1S(=O)(=O)NCCN1CCCCC1 [Example 166, 5-[(4-fluorophenyl)sulfonyl]-2-methyl-N-(2-piperidin-1-ylethyl)benzenesulfonamide] | 2 | 1.1 | –
9 | CC(=O)c1cccc(S(=O)(=O)c2ccc(C)c(S(=O)(=O)NCCc3ccccn3)c2)c1 [Example 419, 5-[(3-acetylphenyl)sulfonyl]-2-methyl-N-(2-pyridin-2-ylethyl)benzenesulfonamide] | 2.5 | 1.3 | –
10 | COc1cccc(CCNS(=O)(=O)c2cc(S(=O)(=O)c3ccccc3)ccc2C)c1 [Example 33, N-[2-(3-methoxyphenyl)ethyl]-2-methyl-5-(phenylsulfonyl)benzenesulfonamide] | – | – | fold induction at 30 µM [5]: 1.2; fold induction at 30 µM [6]: 0.4
11 | CCN(C)c1ccc(S(=O)(=O)c2ccc(C)c(S(=O)(=O)NCCCn3ccnc3)c2)cc1 [Example 304, 5-({4-[ethyl(methyl)amino]phenyl}sulfonyl)-N-[3-(1H-imidazol-1-yl)propyl]-2-methylbenzenesulfonamide] | 1.7 | 1 | –
12 | Cc1ccc(S(=O)(=O)c2ccccc2)cc1S(=O)(=O)NCCc1ccc2c(c1)OCO2 [Example 43, N-[2-(1,3-benzodioxol-5-yl)ethyl]-2-methyl-5-(phenylsulfonyl)benzenesulfonamide] | – | – | fold induction at 30 µM [5]: 3.6; fold induction at 30 µM [6]: 1
13 | Cc1c(S(=O)(=O)NCCCn2ccnc2)cccc1S(=O)(=O)c1ccccc1 [Example 493, N-[3-(1H-imidazol-1-yl)propyl]-2-methyl-3-(phenylsulfonyl)benzenesulfonamide] | – | – | fold induction at 15 µM [1]: 1; fold induction at 15 µM [2]: 1.1
